Assay results from patent US9593084B2 (Parion Sciences, Inc., priority 2012, dated 2017).

Molecular target: T1, epithelial sodium channel (Canis lupus familiaris, UniProt A0A8I3MKE6+A0A8I3Q679+Q95165)
T1 construct: endogenous in cells; host or cells: primary canine bronchial epithelial cells cultured at air-liquid interface
T1 sequence (A0A8I3Q679 1-649): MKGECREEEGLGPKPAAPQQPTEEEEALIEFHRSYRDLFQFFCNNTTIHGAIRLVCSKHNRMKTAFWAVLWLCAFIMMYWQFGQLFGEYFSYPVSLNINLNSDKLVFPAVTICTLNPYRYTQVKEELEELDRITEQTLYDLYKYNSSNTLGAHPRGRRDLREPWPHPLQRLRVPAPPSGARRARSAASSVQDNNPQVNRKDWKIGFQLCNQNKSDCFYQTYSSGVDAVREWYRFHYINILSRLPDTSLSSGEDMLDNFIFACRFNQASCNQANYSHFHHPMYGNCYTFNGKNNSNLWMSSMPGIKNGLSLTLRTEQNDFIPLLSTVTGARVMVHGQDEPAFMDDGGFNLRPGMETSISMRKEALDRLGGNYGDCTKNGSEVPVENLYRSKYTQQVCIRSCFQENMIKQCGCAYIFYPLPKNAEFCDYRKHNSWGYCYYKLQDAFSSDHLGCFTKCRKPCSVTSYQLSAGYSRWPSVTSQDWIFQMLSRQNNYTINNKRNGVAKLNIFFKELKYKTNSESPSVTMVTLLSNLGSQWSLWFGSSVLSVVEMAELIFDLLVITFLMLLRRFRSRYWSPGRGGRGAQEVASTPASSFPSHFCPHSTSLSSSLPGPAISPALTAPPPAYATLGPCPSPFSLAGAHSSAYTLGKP
T1 sequence (Q95165 1-641): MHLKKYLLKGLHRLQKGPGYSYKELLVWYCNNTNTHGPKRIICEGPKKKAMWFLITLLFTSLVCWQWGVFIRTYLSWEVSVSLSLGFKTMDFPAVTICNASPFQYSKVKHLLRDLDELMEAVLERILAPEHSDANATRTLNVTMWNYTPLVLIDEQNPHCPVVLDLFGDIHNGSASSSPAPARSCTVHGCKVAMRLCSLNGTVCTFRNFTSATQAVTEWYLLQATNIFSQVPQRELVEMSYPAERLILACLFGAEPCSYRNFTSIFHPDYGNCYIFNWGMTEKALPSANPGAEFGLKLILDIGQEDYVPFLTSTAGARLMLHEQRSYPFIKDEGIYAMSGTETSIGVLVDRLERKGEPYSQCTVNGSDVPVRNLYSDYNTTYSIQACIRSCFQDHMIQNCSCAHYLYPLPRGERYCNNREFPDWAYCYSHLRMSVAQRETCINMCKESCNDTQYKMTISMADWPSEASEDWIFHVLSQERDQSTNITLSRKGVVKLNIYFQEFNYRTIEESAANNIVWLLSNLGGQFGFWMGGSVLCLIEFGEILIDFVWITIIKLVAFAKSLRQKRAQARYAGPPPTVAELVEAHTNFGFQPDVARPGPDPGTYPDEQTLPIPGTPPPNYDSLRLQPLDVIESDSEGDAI
T1 sequence (A0A8I3MKE6 1-646): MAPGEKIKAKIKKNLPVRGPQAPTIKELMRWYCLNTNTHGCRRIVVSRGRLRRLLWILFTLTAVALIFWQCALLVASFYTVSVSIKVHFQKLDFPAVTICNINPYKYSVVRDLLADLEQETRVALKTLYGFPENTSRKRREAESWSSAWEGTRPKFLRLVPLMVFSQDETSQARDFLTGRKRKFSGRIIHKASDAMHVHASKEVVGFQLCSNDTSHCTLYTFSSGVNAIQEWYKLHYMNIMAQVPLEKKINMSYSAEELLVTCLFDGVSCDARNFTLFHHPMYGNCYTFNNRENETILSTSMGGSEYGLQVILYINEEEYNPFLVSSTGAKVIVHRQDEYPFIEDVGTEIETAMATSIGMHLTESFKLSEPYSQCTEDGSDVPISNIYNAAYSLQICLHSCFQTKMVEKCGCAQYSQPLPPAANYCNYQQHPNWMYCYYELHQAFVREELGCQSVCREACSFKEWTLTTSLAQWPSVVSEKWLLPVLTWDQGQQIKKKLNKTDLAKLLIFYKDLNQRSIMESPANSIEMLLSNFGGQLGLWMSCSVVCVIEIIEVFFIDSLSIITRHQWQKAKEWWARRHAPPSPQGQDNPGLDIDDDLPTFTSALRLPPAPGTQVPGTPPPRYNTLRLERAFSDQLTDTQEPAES
Assay: Inhibition of short-circuit current (ISC) in airway epithelial monolayers in Ussing chambers
Format: cell-based, canine
Conditions: canine bronchial epithelial cells, short-circuit current; read-out: Potency of Sodium Channel Blockade IC50
Experimental: One assay used to assess mechanism of action and/or potency of the compounds of the present invention involves the determination of lumenal drug inhibition of airway epithelial sodium currents measured under short circuit current (ISC) using airway epithelial monolayers mounted in Using chambers. Cells obtained from freshly excised human, dog, sheep or rodent airways are seeded onto porous 0.4 micron Snapwelff Inserts (CoStar), cultured at air-liquid interface (ALI) conditions in hormonally defined media, and assayed for sodium transport activity (ISC) while bathed in Krebs Bicarbonate Ringer (KBR) in Using chambers. All test drug additions are to the lumenal bath with half-log dose addition protocols (from 1×10^−11 M to 3×10^−5 M), and the cumulative change in ISC (inhibition) recorded. All drugs are prepared in dimethyl sulfoxide as stock solutions at a concentration of 1×10^−2 M and stored at −20° C. […] After the maximal concentration ([…]) is administered, the lumenal bath is exchanged three times with fresh drug-free KBR solution, and the resultant ISC measured after each wash for approximately 5 minutes in duration. Reversibility is defined as the percent return to the baseline value for sodium current after the third wash. All data from the voltage clamps are collected via a computer interface and analyzed off-line.
Dose-effect relationships for all compounds are considered and analyzed by the Prism 3.0 program.

Compound: N=C(NCCCCc1ccc(C[C@H](N)C(=O)Nc2ccc(CCCN(C[C@H](O)[C@@H](O)[C@H](O)[C@H](O)CO)C[C@H](O)[C@@H](O)[C@H](O)[C@H](O)CO)cc2)c2ccccc12)NC(=O)c1nc(Cl)c(N)nc1N [Compound 33, 3,5-diamino-N—(N-(4-(4-((S)-2-amino-3-(4-(3-(bis((2S,3R,4R,5R)-2,3,4,5,6-pentahydroxyhexyl)amino)propyl)phenylamino)-3-oxopropyl)naphthalen-1-yl)butyl)carbamimidoyl)-6-chloropyrazine-2-carboxamide]
- IC50: 21.8 nM
